Data on 16 molecules can be found in US20250353820A1, “ANTIVIRAL PYRAZOLOPYRIDINONE COMPOUNDS” (Novartis AG, priority 2019, published 2025).

The structures appear in SMILES notation.

In the first test the test system is Luciferase-encoding HCMV (AD169 strain). Briefly: microbe, parasite or virus in culture. The test is classed as cell-based. The settings on record: read-out: CMV-Luc Cellular EC50; NN-NHDF cells, MOI of 1, 72 hrs.
Take `CC1Cc2c(C(=O)NCc3ccc(C#N)cc3)nn(C)c2C(=O)N1CC1(S(C)(=O)=O)CC1` (single isomer, unassigned) [Example 41, (R)- or (S)—N-(4-cyanobenzyl)-1,5-dimethyl-6-((1-(methylsulfonyl)cyclopropyl)methyl)-7-oxo-4,5,6,7-tetrahydro-1H-pyrazolo[3,4-c]pyridine-3-carboxamide]: the EC50 was over 10000 nM. For `CC1Cc2c(C(=O)NCc3ccc(C#N)cc3)nn(C)c2C(=O)N1CC1(S(C)(=O)=O)CC1` (single isomer, unassigned) [Example 42, (R)- or (S)—N-(4-cyanobenzyl)-1,5-dimethyl-6-((1-(methylsulfonyl)cyclopropyl)methyl)-7-oxo-4,5,6,7-tetrahydro-1H-pyrazolo[3,4-c]pyridine-3-carboxamide], the EC50 amounted to 1180 nM. The same measure, in the same setting: under `Cn1nc(C(=O)NCc2ccc(C#N)cc2)c2c1C(=O)N(CC1(S(=O)(=O)C(C)(C)COC(F)CO)CC1)CC2` (single isomer, unassigned) [Example 81, (R)- or (S)—N-(4-cyanobenzyl)-6-((1-((1-(1-fluoro-2-hydroxyethoxy)-2-methylpropan-2-yl)sulfonyl)cyclopropyl)methyl)-1-methyl-7-oxo-4,5,6,7-tetrahydro-1H-pyrazolo[3,4-c]pyridine-3-carboxamide] stands 42 nM. Take `Cn1nc(C(=O)NCc2ccc(C#N)cc2)c2c1C(=O)N(CC1(S(=O)(=O)C(C)(C)COC(F)CN)CC1)CC2` (single isomer, unassigned) [Example 82, (R)- or (S)-6-((1-((1-(2-amino-1-fluoroethoxy)-2-methylpropan-2-yl)sulfonyl)cyclopropyl)methyl)-N-(4-cyanobenzyl)-1-methyl-7-oxo-4,5,6,7-tetrahydro-1H-pyrazolo[3,4-c]pyridine-3-carboxamide]: the EC50 worked out at 29 nM. The same measure, in the same setting: under `Cn1nc(C(=O)NCc2ccc(C#N)cc2)c2c1C(=O)N(CC1(S(=O)(=O)C(C)(C)COC(F)CN)CC1)CC2` (single isomer, unassigned) [Example 83, (R)- or (S)-6-((1-((1-(2-amino-1-fluoroethoxy)-2-methylpropan-2-yl)sulfonyl)cyclopropyl)methyl)-N-(4-cyanobenzyl)-1-methyl-7-oxo-4,5,6,7-tetrahydro-1H-pyrazolo[3,4-c]pyridine-3-carboxamide] stands 133 nM; under `CC(O)COCC(C)(C)S(=O)(=O)C1(CN2CCc3c(C(=O)NCc4ccc(C#N)cc4)nn(C)c3C2=O)CC1` (single isomer, unassigned) [Example 91, (R)- or (S)—N-(4-Cyanobenzyl)-6-((1-((1-(2-hydroxypropoxy)-2-methylpropan-2-yl)sulfonyl)cyclopropyl)methyl)-1-methyl-7-oxo-4,5,6,7-tetrahydro-1H-pyrazolo[3,4-c]pyridine-3-carboxamide], 76 nM. Regarding `CC1=NOC(C(C)(C)S(=O)(=O)C2(CN3CCc4c(C(=O)NCc5ccc(C#N)cc5)nn(C)c4C3=O)CC2)C1` (single isomer, unassigned) [Example 111, (R)- or (S)—N-(4-Cyanobenzyl)-1-methyl-6-((1-((2-(3-methyl-4,5-dihydroisoxazol-5-yl)propan-2-yl)sulfonyl)cyclopropyl)methyl)-7-oxo-4,5,6,7-tetrahydro-1H-pyrazolo[3,4-c]pyridine-3-carboxamide], the EC50 was found to be 159 nM. As for `CC1=NOC(C(C)(C)S(=O)(=O)C2(CN3CCc4c(C(=O)NCc5ccc(C#N)cc5)nn(C)c4C3=O)CC2)C1` (single isomer, unassigned) [Example 112, (R)- or (S)—N-(4-Cyanobenzyl)-1-methyl-6-((1-((2-(3-methyl-4,5-dihydroisoxazol-5-yl)propan-2-yl)sulfonyl)cyclopropyl)methyl)-7-oxo-4,5,6,7-tetrahydro-1H-pyrazolo[3,4-c]pyridine-3-carboxamide], the EC50 turned out to be 64 nM. The same measure, in the same setting: for `CC(O)CC(C)(C)S(=O)(=O)C1(CN2CCc3c(C(=O)NCc4ccc(C#N)cc4)nn(C)c3C2=O)CC1` (single isomer, unassigned) [Example 116, (R)- or (S)—N-(4-Cyanobenzyl)-6-((1-((4-hydroxy-2-methylpentan-2-yl)sulfonyl)cyclopropyl)methyl)-1-methyl-7-oxo-4,5,6,7-tetrahydro-1H-pyrazolo[3,4-c]pyridine-3-carboxamide] the value was 39 nM; for `Cn1nc(C(=O)NCc2ccc(C#N)cc2)c2c1C(=O)N(CC1(S(=O)(=O)N3CCC(C)(O)C3)CC1)CC2` (single isomer, unassigned) [Example 131, (R)- or (S)-N-(4-Cyanobenzyl)-6-((1-((3-hydroxy-3-methylpyrrolidin-1-yl)sulfonyl)cyclopropyl)methyl)-1-methyl-7-oxo-4,5,6,7-tetrahydro-1H-pyrazolo[3,4-c]pyridine-3-carboxamide], 223 nM.

`COCC(C)(CO)S(=O)(=O)C1(CN2CCc3c(C(=O)NCc4ccc(C#N)cc4)nn(C)c3C2=O)CC1` (single isomer, unassigned) [Example 182, (R)- or (S)—N-(4-Cyanobenzyl)-6-((1-((1-hydroxy-3-methoxy-2-methylpropan-2-yl)sulfonyl)cyclopropyl)methyl)-1-methyl-7-oxo-4,5,6,7-tetrahydro-1H-pyrazolo[3,4-c]pyridine-3-carboxamide]: the EC50 was 50 nM. On to `Cn1nc(C(=O)NCc2ccc(Cl)cc2)c2c1C(=O)N(CC1(S(=O)(=O)C(C)(CN)CO)CC1)CC2` (single isomer, unassigned) [Example 187], for which the EC50 amounted to 71 nM.

Turning to `Cn1nc(C(=O)NCc2ccc(C#N)cc2)c2c1C(=O)N(CC1(S(=O)(=O)C(C)(C)C(O)C(C)(C)N)CC1)CC2` (single isomer, unassigned) [Example 211, (R)- or (S)-6-((1-((4-Amino-3-hydroxy-2,4-dimethylpentan-2-yl)sulfonyl)cyclopropyl)methyl)-N-(4-cyanobenzyl)-1-methyl-7-oxo-4,5,6,7-tetrahydro-1H-pyrazolo[3,4-c]pyridine-3-carboxamide], the EC50 stood at 28 nM. On to `Cn1nc(C(=O)NCc2ccc(C#N)cc2)c2c1C(=O)N(CC1(S(=O)(=O)C(C)(C)C(O)C(C)(C)N)CC1)CC2` (single isomer, unassigned) [Example 212, (R)- or (S)-6-((1-((4-Amino-3-hydroxy-2,4-dimethylpentan-2-yl)sulfonyl)cyclopropyl)methyl)-N-(4-cyanobenzyl)-1-methyl-7-oxo-4,5,6,7-tetrahydro-1H-pyrazolo[3,4-c]pyridine-3-carboxamide], for which the EC50 was 7 nM. `CC(O)Cn1nc(C(=O)NCc2ccc(C#N)cc2)c2c1C(=O)N(CC1(S(=O)(=O)C3CC3)CC1)CC2` (single isomer, unassigned) [Example 226, (R)- or (S)—N-(4-Cyanobenzyl)-6-((1-(cyclopropylsulfonyl)cyclopropyl)methyl)-1-(2-hydroxypropyl)-7-oxo-4,5,6,7-tetrahydro-1H-pyrazolo[3,4-c]pyridine-3-carboxamide]: the half-maximal effective concentration (EC50) is 44 nM.

Another test concerns the target human HSV DNA polymerase UL30 (Human herpesvirus 1 (strain 17) (HHV-1) (Human herpes simplex virus 1), UniProt P04293). Briefly: biochemical. The settings on record: 625 pM HSV polymerase, 20 minutes at room temperature; read-out: HSV-polymerase Biochemical IC50.
In the case of `Cn1nc(C(=O)NCc2ccc(C#N)cc2)c2c1C(=O)N(CC1(S(=O)(=O)N3CCC(C)(O)C3)CC1)CC2` (single isomer, unassigned) [Example 131, (R)- or (S)-N-(4-Cyanobenzyl)-6-((1-((3-hydroxy-3-methylpyrrolidin-1-yl)sulfonyl)cyclopropyl)methyl)-1-methyl-7-oxo-4,5,6,7-tetrahydro-1H-pyrazolo[3,4-c]pyridine-3-carboxamide], the concentration for half-maximal inhibition (IC50) stood at 162 nM. Same read-out and setting: under `Cn1nc(C(=O)NCc2ccc(Cl)cc2)c2c1C(=O)N(CC1(S(=O)(=O)C(C)(CN)CO)CC1)CC2` (single isomer, unassigned) [Example 187] stands 86 nM; under `CC(C)(CO)S(=O)(=O)C1(CN2CCc3c(C(=O)NCc4ccc(C#N)cc4)nn(CCOCCBr)c3C2=O)CC1` [Example 238, 1-(2-(2-Bromoethoxy)ethyl)-N-(4-cyanobenzyl)-6-((1-((1-hydroxy-2-methylpropan-2-yl)sulfonyl)cyclopropyl)methyl)-7-oxo-4,5,6,7-tetrahydro-1H-pyrazolo[3,4-c]pyridine-3-carboxamide], 16 nM.
